Structures are written as SMILES. Structures can show the parent of a compound that is named as a salt.

The target in this assay is PI3Kδ (p110δ/p85α) (Homo sapiens (Human), UniProt O00329). The experiment in a line: Example A3: PI3Kδ scintillation proximity assay. It is filed as biochemical. The following applies: scintillation proximity assay, 20 μM ATP, 4 nM PI3Kδ; read-out: PI3Kδ SPA IC50. Here is the method: [γ-^33P]ATP (10 mCi/mL) was purchased from Perkin-Elmer (Waltham, Mass.). […] PI3Kδ (p110δ/p85α) was purchased from Millipore (Bedford, Mass.). ATP, MgCl2, DTT, EDTA, MOPS and CHAPS were purchased from Sigma-Aldrich (St. Louis, Mo.). Wheat Germ Agglutinin (WGA) YSi SPA Scintillation Beads was purchased from GE healthcare life sciences (Piscataway, N.J.).
Chain of PI3Kδ (p110δ/p85α) (O00329 whole entry): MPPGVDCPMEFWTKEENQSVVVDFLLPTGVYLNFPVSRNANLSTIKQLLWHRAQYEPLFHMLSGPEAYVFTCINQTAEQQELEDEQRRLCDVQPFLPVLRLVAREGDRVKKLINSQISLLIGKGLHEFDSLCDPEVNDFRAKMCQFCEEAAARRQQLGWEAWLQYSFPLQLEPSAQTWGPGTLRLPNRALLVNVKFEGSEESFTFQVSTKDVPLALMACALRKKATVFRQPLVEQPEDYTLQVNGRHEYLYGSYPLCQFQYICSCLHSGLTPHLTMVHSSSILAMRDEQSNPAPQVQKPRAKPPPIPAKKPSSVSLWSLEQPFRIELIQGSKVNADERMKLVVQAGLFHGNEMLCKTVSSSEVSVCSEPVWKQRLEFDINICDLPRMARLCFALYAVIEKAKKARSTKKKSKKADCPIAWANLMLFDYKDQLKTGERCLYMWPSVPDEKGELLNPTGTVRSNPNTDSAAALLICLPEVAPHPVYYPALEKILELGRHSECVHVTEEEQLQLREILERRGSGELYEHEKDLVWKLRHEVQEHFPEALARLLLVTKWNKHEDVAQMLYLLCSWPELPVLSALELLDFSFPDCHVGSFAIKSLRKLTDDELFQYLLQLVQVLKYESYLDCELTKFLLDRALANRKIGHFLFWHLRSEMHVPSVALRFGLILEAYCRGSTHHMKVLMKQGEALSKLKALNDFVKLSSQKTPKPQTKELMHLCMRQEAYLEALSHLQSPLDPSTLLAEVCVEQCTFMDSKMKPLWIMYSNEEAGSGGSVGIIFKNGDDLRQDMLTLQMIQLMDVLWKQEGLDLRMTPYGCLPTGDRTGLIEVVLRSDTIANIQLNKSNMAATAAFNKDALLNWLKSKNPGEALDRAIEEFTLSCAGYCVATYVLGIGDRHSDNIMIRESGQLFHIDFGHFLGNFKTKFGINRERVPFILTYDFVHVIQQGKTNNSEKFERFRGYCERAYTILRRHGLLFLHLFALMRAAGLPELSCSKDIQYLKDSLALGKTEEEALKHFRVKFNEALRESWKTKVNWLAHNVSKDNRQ
Chain of PI3Kδ (p110δ/p85α) (P27986 whole entry partner): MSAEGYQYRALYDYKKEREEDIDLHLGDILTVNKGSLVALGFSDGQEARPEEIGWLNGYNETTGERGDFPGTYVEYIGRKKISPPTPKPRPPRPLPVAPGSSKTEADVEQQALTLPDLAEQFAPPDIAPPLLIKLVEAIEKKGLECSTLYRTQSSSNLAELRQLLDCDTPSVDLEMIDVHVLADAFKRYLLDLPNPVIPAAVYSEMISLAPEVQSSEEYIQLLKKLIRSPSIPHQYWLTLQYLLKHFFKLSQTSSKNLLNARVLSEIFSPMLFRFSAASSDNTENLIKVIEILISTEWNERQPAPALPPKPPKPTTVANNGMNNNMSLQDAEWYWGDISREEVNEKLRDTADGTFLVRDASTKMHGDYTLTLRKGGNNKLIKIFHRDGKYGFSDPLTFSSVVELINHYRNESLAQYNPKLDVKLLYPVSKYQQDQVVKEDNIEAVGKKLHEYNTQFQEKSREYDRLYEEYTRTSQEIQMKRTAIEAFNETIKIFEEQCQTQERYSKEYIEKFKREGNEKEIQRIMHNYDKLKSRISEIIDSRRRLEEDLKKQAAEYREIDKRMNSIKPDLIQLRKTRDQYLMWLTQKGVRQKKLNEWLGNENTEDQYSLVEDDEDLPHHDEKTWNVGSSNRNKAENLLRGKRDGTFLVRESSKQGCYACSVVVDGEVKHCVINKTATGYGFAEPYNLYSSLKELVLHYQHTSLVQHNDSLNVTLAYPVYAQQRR
The kinase reaction was conducted in polystyrene 384-well matrix white plate from Thermo Fisher Scientific in a final volume of 25 μL. Inhibitors were first diluted serially in DMSO and added to the plate wells before the addition of other reaction components. The final concentration of DMSO in the assay was 0.5%. The PI3K assays were carried out at room temperature in 20 mM MOPS, pH 6.7, 10 mM MgCl2, 5 mM DTT and CHAPS 0.03%. Reactions were initiated by the addition of ATP, the final reaction mixture consisted of 20 μM PIP2, 20 μM ATP, 0.2 μCi [γ-^33P] ATP, 4 nM PI3Kδ. […] 25 mM EDTA, 400 μM ATP. The final concentration of SPA beads was 1.0 mg/mL. After the plate sealing, plates were shaken overnight at room temperature and centrifuged at 1800 rpm for 10 minutes, the radioactivity of the product was determined by scintillation counting on Topcount (Perkin-Elmer). IC50 determination was performed by fitting the curve of percent control activity versus the log of the inhibitor concentration using the GraphPad Prism 3.0 software.
Background: Scintillation proximity formats need no separation of bound from free tracer.

Turning to `COc1c(C(C)n2nc(C(F)F)c3c(N)ncnc32)cc(C#N)c(C)c1C1CN(C(C)C)C1` (racemic) [Example 128, 5-{1-[4-amino-3-(difluoromethyl)-1H-pyrazolo[3,4-d]pyrimidin-1-yl]ethyl}-3-(1-isopropylazetidin-3-yl)-4-methoxy-2-methylbenzonitrile], the half-maximal inhibitory concentration (IC50) (commonly the concentration that gives 50% inhibition) is under 10 nM. Then `CCOc1c(C(C)n2nc(C)c3c(N)ncnc32)cc(Cl)c(C#N)c1C1CN(C(C)(C)C(=O)OC(C)(C)C)C1` (stereo not shown) [Example 236, tert-Butyl 2-(3-{3-[1-(4-amino-3-methyl-1H-pyrazolo[3,4-d]pyrimidin-1-yl)ethyl]-5-chloro-6-cyano-2-ethoxyphenyl}azetidin-1-yl)-2-methylpropanoate], with under 10 nM.

In the case of `COc1c(C(C)n2nc(C)c3c(N)ncnc32)cc(Cl)c(C)c1-c1cncc(C(=O)N(C)C)c1` (single isomer, unassigned) [Example 65, 5-{3-[1-(4-amino-3-methyl-1H-pyrazolo[3,4-d]pyrimidin-1-yl)ethyl]-5-chloro-2-methoxy-6-methylphenyl}-N,N-dimethylnicotinamide], the half-maximal inhibitory concentration (IC50) is under 10 nM.

For `CCOc1c(C(C)n2nc(C)c3c(N)ncnc32)cc(Cl)c(C#N)c1C1CN(CCC(F)(F)F)C1` (single isomer, unassigned) [Example 234, 4-[1-(4-Amino-3-methyl-1H-pyrazolo[3,4-d]pyrimidin-1-yl)ethyl]-6-chloro-3-ethoxy-2-[1-(3,3,3-trifluoropropyl)azetidin-3-yl]benzonitrile], the IC50 is under 10 nM. Then `COc1c(C(C)n2nc(C(F)F)c3c(N)ncnc32)cc(C#N)c(C)c1C1CN(C[C@@H](C)O)C1` (stereo partly drawn) [Example 132, 5-{1-[4-Amino-3-(difluoromethyl)-1H-pyrazolo[3,4-d]pyrimidin-1-yl]ethyl}-3-{1-[(2R)-2-hydroxypropyl]azetidin-3-yl}-4-methoxy-2-methylbenzonitrile], with under 10 nM; and `CCOc1c(C(C)n2nc(C)c3c(N)ncnc32)cc(Cl)c(C#N)c1C1CN(C(=O)C(C)(C)O)C1` (single isomer, unassigned) [Example 247, 4-[1-(4-Amino-3-methyl-1H-pyrazolo[3,4-d]pyrimidin-1-yl)ethyl]-6-chloro-3-ethoxy-2-[1-(2-hydroxy-2-methylpropanoyl)azetidin-3-yl]benzonitrile], with under 10 nM. On to `COc1c(C(C)n2nc(C)c3c(N)ncnc32)cc(Cl)c(C#N)c1C1CN(C(N)=O)C1` (single isomer, unassigned) [Example 293, 3-{3-[1-(4-Amino-3-methyl-1H-pyrazolo[3,4-d]pyrimidin-1-yl)ethyl]-5-chloro-6-cyano-2-methoxyphenyl}azetidine-1-carboxamide], for which the IC50 was under 10 nM. Consider `CCC(=O)N1CC(c2c(C)c(Cl)cc(C(C)n3nc(C)c4c(N)ncnc43)c2OC)C1` (stereo not shown) [Example 3, 1-{1-[5-Chloro-2-methoxy-4-methyl-3-(1-propionylazetidin-3-yl)phenyl]ethyl}-3-methyl-1H-pyrazolo[3,4-d]pyrimidin-4-amine trifluoroacetate], for which the IC50 was under 10 nM.

Consider `CCOc1c(C(C)n2nc(C)c3c(N)ncnc32)cc(Cl)c(C#N)c1C1CN(C(C)(C)C(N)=O)C1` (single isomer, unassigned) [Example 239, 2-(3-{3-[1-(4-Amino-3-methyl-1H-pyrazolo[3,4-d]pyrimidin-1-yl)ethyl]-5-chloro-6-cyano-2-ethoxyphenyl}azetidin-1-yl)-2-methylpropanamide], for which the concentration for half-maximal inhibition (IC50) is under 10 nM. In the case of `CCOc1c(C(C)n2nc(-c3cncc(C#N)c3)c3c(N)ncnc32)cc(Cl)c(C)c1-c1ccc(C(=O)N(C)C)nc1` (stereo not shown) [Example 57, 5-(3-{1-[4-amino-3-(5-cyanopyridin-3-yl)-1H-pyrazolo[3,4-d]pyrimidin-1-yl]ethyl}-5-chloro-2-ethoxy-6-methylphenyl)-N,N-dimethylpyridine-2-carboxamide tris(trifluoroacetate)], the IC50 was under 10 nM. As to `COc1c(C(C)n2nc(C)c3c(N)ncnc32)cc(Cl)c(C#N)c1C1CN(C(C)CO)C1` (single isomer, unassigned) [Example 273, 4-[1-(4-amino-3-methyl-1H-pyrazolo[3,4-d]pyrimidin-1-yl)ethyl]-6-chloro-2-[1-(2-hydroxy-1-methylethyl)azetidin-3-yl]-3-methoxybenzonitrile], the IC50 is under 10 nM.

Take `COc1c(C(C)n2nc(C(F)F)c3c(N)ncnc32)cc(Cl)c(F)c1C1CN(CCO)C1` (stereo not shown) [Example 74, 2-[3-(3-{1-[4-Amino-3-(difluoromethyl)-1H-pyrazolo[3,4-d]pyrimidin-1-yl]ethyl}-5-chloro-6-fluoro-2-methoxyphenyl)azetidin-1-yl]ethanol]: the IC50 was under 10 nM.

On to `COc1c(C(C)n2nc(C)c3c(N)ncnc32)cc(Cl)c(C)c1C1CN(CC#N)C1` (single isomer, unassigned) [Example 105, (3-{3-[1-(4-Amino-3-methyl-1H-pyrazolo[3,4-d]pyrimidin-1-yl)ethyl]-5-chloro-2-methoxy-6-methylphenyl}azetidin-1-yl)acetonitrile], for which the concentration for half-maximal inhibition (IC50) was under 10 nM. Then `CCOc1c(C(C)n2nc(C)c3c(N)ncnc32)cc(Cl)c(C#N)c1-c1ccc(C(C)(C)O)nc1` (racemic) [Example 316, 4-[1-(4-amino-3-methyl-1H-pyrazolo[3,4-d]pyrimidin-1-yl)ethyl]-6-chloro-3-ethoxy-2-[6-(1-hydroxy-1-methylethyl)pyridin-3-yl]benzonitrile], with under 10 nM. `CCOc1c(C(C)n2cc(C)c3c(N)ncnc32)cc(Cl)c(C#N)c1C1CN(C(C)C)C1` (stereo not shown) [Example 307, 4-[1-(4-Amino-5-methyl-7H-pyrrolo[2,3-d]pyrimidin-7-yl)ethyl]-6-chloro-3-ethoxy-2-(1-isopropylazetidin-3-yl)benzonitrile]: the IC50 is under 10 nM.

`CCOc1c(C(C)n2nc(C)c3c(N)ncnc32)cc(Cl)c(C#N)c1C1CN(C(C)CO)C1` (single isomer, unassigned) [Example 224, 4-[1-(4-Amino-3-methyl-1H-pyrazolo[3,4-d]pyrimidin-1-yl)ethyl]-6-chloro-3-ethoxy-2-[1-(2-hydroxy-1-methylethyl)azetidin-3-yl]benzonitrile]: the IC50 was under 10 nM. Then `CCOc1c(C(C)n2nc(C)c3c(N)ncnc32)cc(Cl)c(F)c1C1COC(=O)N1` (single isomer, unassigned) [Example 353, 4-{3-[1-(4-amino-3-methyl-1H-pyrazolo[3,4-d]pyrimidin-1-yl)ethyl]-5-chloro-2-ethoxy-6-fluorophenyl}-1,3-oxazolidin-2-one], with over 500 nM; and `COc1c(C(C)n2nc(C)c3c(N)ncnc32)cc(Cl)c(C#N)c1C1CN(C2CCOCC2)C1` (single isomer, unassigned) [Example 277, 4-[1-(4-Amino-3-methyl-1H-pyrazolo[3,4-d]pyrimidin-1-yl)ethyl]-6-chloro-3-methoxy-2-[1-(tetrahydro-2H-pyran-4-yl)azetidin-3-yl]benzonitrile], with under 10 nM. Consider `CCOc1c(C(C)n2nc(C)c3c(N)ncnc32)cc(Cl)c(C)c1-c1cnn(C)c1` (single isomer, unassigned) [Example 197, 1-(1-(5-chloro-2-ethoxy-4-methyl-3-(1-methyl-1H-pyrazol-4-yl)phenyl)ethyl)-3-methyl-1H-pyrazolo[3,4-d]pyrimidin-4-amine], for which the IC50 was under 10 nM.

The values are drawn from US10092570B2 (Incyte Corporation, priority 2011, dated 2018).
